Experimental data taken from the NIST ThermoML archive (doi:10.1021/je030136n).
Numbers after ± are expanded uncertainties.

Assays:
[1] = xn = mol fraction of the nth substance listed; conditions: Liquid, Pulse-echo method, x1 = 1
[2] = Liquid, Pulse-echo method

CCCO [propan-1-ol] + CCCCCCC
[1]
Conditions	speed of sound [m/s]
293.12 K, 15200 kPa	1308.5 ± 1
293.16 K, 121580 kPa	1699.1 ± 1.2
293.17 K, 111450 kPa	1669.9 ± 1.2
293.18 K, 101320 kPa	1639.5 ± 1.2
293.19 K, 100 kPa	1223 ± 1
293.2 K, 75990 kPa	1557.2 ± 1.1
293.2 K, 91190 kPa	1607.6 ± 1.2
293.21 K, 45590 kPa	1444.2 ± 1.1
293.21 K, 60790 kPa	1502.8 ± 1.1
293.22 K, 30400 kPa	1379.9 ± 1.1
298.11 K, 15200 kPa	1292.9 ± 1
298.12 K, 100 kPa	1205.9 ± 1
298.14 K, 45590 kPa	1430.7 ± 1.1
298.14 K, 60790 kPa	1490 ± 1.1
298.14 K, 75990 kPa	1544.9 ± 1.1
298.14 K, 91190 kPa	1595.8 ± 1.2
298.14 K, 101320 kPa	1628 ± 1.2
298.14 K, 111450 kPa	1658.8 ± 1.2
298.14 K, 121580 kPa	1688.2 ± 1.2
298.15 K, 30400 kPa	1365.6 ± 1.1
303.12 K, 100 kPa	1188.7 ± 1
303.13 K, 45590 kPa	1417 ± 1.1
303.14 K, 15200 kPa	1277.3 ± 1
303.15 K, 75990 kPa	1532.5 ± 1.1
303.17 K, 91190 kPa	1584 ± 1.2
303.17 K, 101320 kPa	1616.5 ± 1.2
303.18 K, 121580 kPa	1677.4 ± 1.2
303.19 K, 111450 kPa	1647.5 ± 1.2
303.2 K, 60790 kPa	1477 ± 1.1
303.24 K, 30400 kPa	1350.9 ± 1.1
308.11 K, 121580 kPa	1667 ± 1.2
308.12 K, 75990 kPa	1520.4 ± 1.1
308.13 K, 30400 kPa	1336.8 ± 1.1
308.13 K, 45590 kPa	1403.7 ± 1.1
308.13 K, 60790 kPa	1464.5 ± 1.1
308.16 K, 111450 kPa	1636.7 ± 1.2
308.19 K, 101320 kPa	1605.1 ± 1.2
308.2 K, 100 kPa	1171.4 ± 1
308.2 K, 15200 kPa	1263.6 ± 1
308.2 K, 91190 kPa	1572.4 ± 1.2
313.15 K, 91190 kPa	1561.1 ± 1.2
313.15 K, 101320 kPa	1594.1 ± 1.2
313.16 K, 15200 kPa	1248.7 ± 1
313.16 K, 30400 kPa	1322.6 ± 1.1
313.16 K, 45590 kPa	1390.4 ± 1.1
313.16 K, 75990 kPa	1508.5 ± 1.1
313.17 K, 100 kPa	1154.5 ± 1
313.17 K, 60790 kPa	1451.8 ± 1.1
313.17 K, 121580 kPa	1656.2 ± 1.2
313.22 K, 111450 kPa	1625.8 ± 1.2
318.11 K, 101320 kPa	1583.3 ± 1.2
318.12 K, 60790 kPa	1439.6 ± 1.1
318.12 K, 75990 kPa	1496.8 ± 1.1
318.12 K, 91190 kPa	1549.9 ± 1.2
318.14 K, 45590 kPa	1377.4 ± 1.1
318.16 K, 30400 kPa	1308.7 ± 1.1
318.17 K, 111450 kPa	1615.3 ± 1.2
318.17 K, 121580 kPa	1646 ± 1.2
318.2 K, 100 kPa	1137.5 ± 1

CCCO [propan-1-ol]
[2]
Conditions	speed of sound [m/s]
293.12 K, 15200 kPa	1308.5 ± 1
293.16 K, 121580 kPa	1699.1 ± 1.2
293.17 K, 111450 kPa	1669.9 ± 1.2
293.18 K, 101320 kPa	1639.5 ± 1.2
293.19 K, 100 kPa	1223 ± 1
293.2 K, 75990 kPa	1557.2 ± 1.1
293.2 K, 91190 kPa	1607.6 ± 1.2
293.21 K, 45590 kPa	1444.2 ± 1.1
293.21 K, 60790 kPa	1502.8 ± 1.1
293.22 K, 30400 kPa	1379.9 ± 1.1
298.11 K, 15200 kPa	1292.9 ± 1
298.12 K, 100 kPa	1205.9 ± 1
298.14 K, 45590 kPa	1430.7 ± 1.1
298.14 K, 60790 kPa	1490 ± 1.1
298.14 K, 75990 kPa	1544.9 ± 1.1
298.14 K, 91190 kPa	1595.8 ± 1.2
298.14 K, 101320 kPa	1628 ± 1.2
298.14 K, 111450 kPa	1658.8 ± 1.2
298.14 K, 121580 kPa	1688.2 ± 1.2
298.15 K, 30400 kPa	1365.6 ± 1.1
303.12 K, 100 kPa	1188.7 ± 1
303.13 K, 45590 kPa	1417 ± 1.1
303.14 K, 15200 kPa	1277.3 ± 1
303.15 K, 75990 kPa	1532.5 ± 1.1
303.17 K, 91190 kPa	1584 ± 1.2
303.17 K, 101320 kPa	1616.5 ± 1.2
303.18 K, 121580 kPa	1677.4 ± 1.2
303.19 K, 111450 kPa	1647.5 ± 1.2
303.2 K, 60790 kPa	1477 ± 1.1
303.24 K, 30400 kPa	1350.9 ± 1.1
308.11 K, 121580 kPa	1667 ± 1.2
308.12 K, 75990 kPa	1520.4 ± 1.1
308.13 K, 30400 kPa	1336.8 ± 1.1
308.13 K, 45590 kPa	1403.7 ± 1.1
308.13 K, 60790 kPa	1464.5 ± 1.1
308.16 K, 111450 kPa	1636.7 ± 1.2
308.19 K, 101320 kPa	1605.1 ± 1.2
308.2 K, 100 kPa	1171.4 ± 1
308.2 K, 15200 kPa	1263.6 ± 1
308.2 K, 91190 kPa	1572.4 ± 1.2
313.15 K, 91190 kPa	1561.1 ± 1.2
313.15 K, 101320 kPa	1594.1 ± 1.2
313.16 K, 15200 kPa	1248.7 ± 1
313.16 K, 30400 kPa	1322.6 ± 1.1
313.16 K, 45590 kPa	1390.4 ± 1.1
313.16 K, 75990 kPa	1508.5 ± 1.1
313.17 K, 100 kPa	1154.5 ± 1
313.17 K, 60790 kPa	1451.8 ± 1.1
313.17 K, 121580 kPa	1656.2 ± 1.2
313.22 K, 111450 kPa	1625.8 ± 1.2
318.11 K, 101320 kPa	1583.3 ± 1.2
318.12 K, 60790 kPa	1439.6 ± 1.1
318.12 K, 75990 kPa	1496.8 ± 1.1
318.12 K, 91190 kPa	1549.9 ± 1.2
318.14 K, 45590 kPa	1377.4 ± 1.1
318.16 K, 30400 kPa	1308.7 ± 1.1
318.17 K, 111450 kPa	1615.3 ± 1.2
318.17 K, 121580 kPa	1646 ± 1.2
318.2 K, 100 kPa	1137.5 ± 1
